Results taken from a melting point compilation (Tetko et al.; mined from patent text by program, amines drawn as free bases though some values may be those of a salt).

Row | Structure (SMILES) | melting point
1 | OCC(COc1noc2ccc(Cl)cc12)NC(c1ccccc1)(c1ccccc1)c1ccccc1 (centres undefined) | 142 to 144 °C
2 | CC(C)(C)c1ccc(S(=O)(=O)Nc2nc(-c3ncccn3)nc(OCCO)c2-c2cccs2)cc1 | 236 to 237 °C
3 | CC(CCC(F)(F)C(C)(C)O)C1CCC2C3CC=C4CC(O)CC(O)C4(C)C3CCC12C (centres undefined) | 177 to 179 °C
4 | CCCCc1noc(-c2ncn3c2[C@@H]2CCCN2C(=O)c2c(Cl)cccc2-3)n1 | 181 to 182 °C
5 | O=C1Nc2ccc([N+](=O)[O-])cc2C2(c3ccccc3)OCCN12 (centres undefined) | 275 to 276 °C
6 | O=Cc1cc(C=O)c(C#Cc2ccccc2)cc1C#Cc1ccccc1 | 170 to 172 °C
7 | O=C1Cc2cc(-c3cccc([N+](=O)[O-])c3)ccc2N1 | 269 °C
8 | CC(C)OC(=O)c1nc(Cl)c(-c2c(F)cc(F)cc2F)c(N[C@@H](C)C(F)(F)F)n1 | 146 to 147 °C
9 | CCCSc1c(C=NO)c(=O)n(C)c(=O)n1C | 161 to 162 °C
10 | CCCCCCCCC1C=CC(/C(C)=C/c2ccc(C(=O)O)o2)=C2N=C3CCCCC3=C21 (centres undefined) | 152 to 154 °C
11 | NS(=O)(=O)C(F)(F)c1nnc(C(F)(F)S(N)(=O)=O)o1 | 171 to 172 °C
12 | COc1ccccc1Cc1ccc(=O)[nH]n1 | 142 to 143 °C
13 | N#Cc1cc(CCNc2ncnc3c(F)ccc(F)c23)ccc1Oc1cc(C(F)(F)F)ccn1 | 157 to 159 °C
14 | COc1ccc(-n2nc(C(F)(F)F)nc2-c2ccc(S(N)(=O)=O)cc2)cc1 | 228 °C
15 | Nc1nccc(Oc2ccc3c(C(=O)Nc4ccc(F)c(C(F)(F)F)c4)cccc3c2)n1 | 205 °C
16 | CCOC(=O)C1(C(=O)OCC)CCC2(CC1)NCCc1cc(OC)c(OC)cc12 | 103 to 104 °C
17 | Cc1c(CC(=O)O)oc2ccc(-c3ccccc3)cc12 | 173 to 174 °C
18 | N#Cc1cc(-c2ccc(F)cc2)ccn1 | 194 to 195 °C
19 | CNc1nnc2ccc(-c3cccc(N(C)C(C)=O)c3)nn12 | 213 to 215 °C
20 | Cc1cccc(C(N)=NO)c1C | 110 to 111 °C
21 | COc1ccc2c(c1)OCC(/C=C/C=C/C=C/C(=O)O)=C2 | 238 to 240 °C
22 | O=C(O)c1nc2ccc(O)cc2[nH]1 | 206 to 207 °C
23 | COc1ccc(CC(=O)Cc2c(OC)cc(OC)c(CC=C(C)C)c2OCC(=O)O)cc1 | 102 °C
24 | O=C(CCc1ccccc1)N[C@H](Cc1ccc(C(F)(F)F)cc1)[C@@H](O)c1cccc(Oc2ccccc2)c1 (racemic) | 134 to 135 °C
25 | Nc1nc2n(C3OC(CO)C(O)C3O)[nH]cc-2c(=S)n1 (centres undefined) | 222 to 224 °C

Row | Structure (SMILES) | melting point
26 | C[C@@H](c1ccc(-c2ccc(C(=O)NC3CC3)cn2)cc1)N1CC[C@](CC(C)(C)O)(c2ccccc2)OC1=O | 191 to 194 °C
27 | COc1cc(-c2c(C)noc2C)cc2oc(=O)c(C)c(C)c12 | 145 to 147 °C
28 | CC(=O)OC1(C(=O)COC(=O)CC(C)C)CCC2C3CC(C)C4=CC(=O)C=CC4(C)C3C(O)CC21C (centres undefined) | 126 to 130 °C
29 | COc1ccc(C(=O)Nc2cccnc2)cc1Nc1cccc(C(F)(F)F)c1 | 184 to 185 °C
30 | O=C(O)c1cccc2c1CCc1ccccc1S2 | 186 to 187 °C
31 | Cc1ccc(S(=O)(=O)N2CC2)cc1 | 51 to 52 °C
32 | CCCSc1ncc(C(C)C(=O)O)n1Cc1ccccc1Cl (centres undefined) | 170 to 172 °C
33 | N#Cc1cc(F)c2ncc(C(=O)NCc3ccc(Cl)cc3)c(O)c2c1 | > 300 °C
34 | COc1ccc(-c2ccc(C(=O)c3ccccc3)cc2)cc1 | 167 to 168 °C
35 | c1ccc(-c2nn3c(c2-c2ccnc4cc(OCCN5CCOCC5)ccc24)CCCCC3)nc1 | 157 to 159 °C
36 | CCC(C)Nc1nc2ccccc2c(=O)o1 (centres undefined) | 122 to 123 °C
37 | CN1CC(Cn2cnnn2)CC2c3cccc4[nH]cc(c34)CC21 (centres undefined) | 206 to 209 °C
38 | CC1(C)C(=O)C(C)(C)c2cc3[nH]c(SCc4ccccn4)nc3cc21 | 167 to 168 °C
39 | O=C(O)c1[nH]c2cc(Cl)cc(Cl)c2c1N(Cc1ccccc1)C(=O)c1ccccc1 | 266 to 267 °C
40 | CC(C)(C)NC(=O)[C@@H]1CCCN1C(=O)[C@@H](O)[C@@H](C(=O)[C@H](CC(N)=O)NCc1cnc2ccccc2n1)C(N)c1ccccc1 (some centres undefined) | 116 to 119 °C
41 | CCCN(C1CC(C)(C)Oc2ccc(OCc3ccccc3)cc21)S(=O)(=O)CC (centres undefined) | 102 to 103 °C
42 | Cc1cc(C)c(Nc2nc(C)ncc2S(=O)(=O)c2ccc(C#N)cc2)c(C)c1 | 258 to 260 °C
43 | CCCCOc1cc(CNCCCN2CCCCC2)cc(S(N)(=O)=O)c1Cc1ccccc1 | 98 to 101 °C
44 | CCOC(=O)C(C(=O)N(C)C)=C(OC)c1ccc(Cl)cc1Cl | 88 to 92 °C
45 | Cn1nc(OCc2ccccc2)cc1C=O | 49.5 to 50.5 °C
46 | N#CCCNC(=O)C1=CC(CF)(CF)Oc2ccc(C(F)(F)C(F)(F)C(F)(F)F)cc21 | 135 to 136 °C
47 | O=C(O)C(Oc1ccccc1)c1ccc(Oc2ccccc2)cc1 (centres undefined) | 144 to 146 °C
48 | COc1ccc(C2COc3cc(OC(=O)C(C)(C)C)ccc3C2(O)Cc2ccc(OCc3ccccc3)cc2)cc1 (centres undefined) | 104 to 111 °C
49 | CC1(C)Cc2sc3c(c2C1)CCC3=O | 60 to 62 °C
50 | Fc1cc(Cc2cccs2)c(Cl)cc1Cl | 60 to 61 °C

Row | Structure (SMILES) | melting point
51 | O=C(CC(F)(F)F)Nc1c(C(=O)c2ccccc2)[nH]c2cc(Cl)ccc12 | 201 to 204 °C
52 | CCOCc1nc2c(N)nc3cc(-c4ccccc4)cnc3c2n1CCCONC(C)C | 142 to 144 °C
53 | CCOC(=O)C1=Cc2cccc(S(N)(=O)=O)c2OCC1 | 197 to 198 °C
54 | N#CC1Cc2cc3cc[nH]c3cc21 (centres undefined) | 126 to 128 °C
55 | COc1ccc(C(=O)Nc2ccc(Cl)c(Cl)c2)cc1Nc1cccc(C(F)(F)F)c1 | 154 to 155 °C
56 | Fc1ccc(Nc2cc(Cl)nc(NN=Cc3ccc(OC(F)(F)F)cc3)n2)cc1C(F)(F)F | 162 to 164 °C
57 | Cc1ccccc1Cn1cccc1C(=O)CC(=O)C(=O)O | 176 to 178 °C
58 | COC(=O)c1sc(Nc2ccc(Cl)cc2)nc1C | 172 to 173 °C
59 | CCC(C)OC(=O)N1CCC(c2nc3cc(-c4ccc(-n5cnnn5)cc4F)ccc3o2)CC1 (centres undefined) | 118 to 122 °C
60 | CNc1nn2c(N)nnc2c2c1CCCC2 | 295 to 297 °C
61 | CC(C)N1CCN(c2ccc(-c3[nH]nc4c3C(=O)c3c(NC(=O)NN5CCN(C)CC5)cccc3-4)cc2)CC1 | 272 °C
62 | S=c1[nH]c2c(n1Nc1cccc(Cl)c1)CCCC2 | 148 °C
63 | C=CCOC(=O)COc1cccc(NC(=O)NCC(=O)N(CC(=O)OC(C)(C)C)c2ccccc2C(=O)c2ccccc2)c1 | 134 to 136 °C
64 | CNC(=S)N1CCc2[nH]cnc2C1c1ccccc1 (centres undefined) | 228 °C
65 | O=C(c1cc(-c2cccnc2)c(N2CCOCC2)s1)c1ccc(Cl)cc1Cl | 176 °C
66 | NNC(=O)Cc1cc(C(=O)c2ccc(I)c(N)c2)sc1-c1ccccc1 | 159 to 165 °C
67 | CCCNc1nc(C)c(CCO)c(=O)n1C | 240 °C
68 | CC(=O)c1cc2c(cc1NC(=O)c1coc3ccccc13)OCO2 | 144 to 145 °C
69 | O=[N+]([O-])c1cccc(-c2nc3ccc(OC(F)(F)F)cc3[nH]2)c1 | 193 to 195 °C
70 | CN(CCCl)C(=O)Nc1ccc([N+](=O)[O-])cc1C(F)(F)F | 86 to 87 °C
71 | CCCn1nc(-c2ccc(O)c(Cl)c2)c2cccc(Cl)c21 | 145 to 146 °C
72 | C=C1C(O)C(CO)OC1n1cc(I)c(=O)[nH]c1=O (centres undefined) | 169 to 172 °C
73 | CCCCCc1nc2c(N)nc3ccccc3c2n1CCCCNC(=O)Nc1ccccc1 | 159 to 160 °C
74 | CCCCCCCCCCNC(=O)C1=C(C(=O)Nc2cc(OC3CCCC3)c(Cl)cc2F)CCCC1 | 128 to 130 °C
75 | O=C(O)c1cc2c3ccccc3n(-c3ccccc3)c2s1 | 206 to 207 °C

Row | Structure (SMILES) | melting point
76 | Cc1cccc(C(=O)Nc2ccc(N3CCN(Cc4cccc(C#N)c4)CC3)cc2)c1-c1ccc(C(C)C)cc1 | 137 °C
77 | COc1ccc(-c2nc3c(C(=O)NC4CN5CCC4CC5)cccc3o2)cc1 (centres undefined) | 108 to 109 °C
78 | Oc1cccc2c1CC1OC1C2 (centres undefined) | 143 to 146 °C
79 | N#C[C@@H]1CCCN1C(=O)CCl | 53 to 57 °C
80 | CC(=O)Oc1c(C)c(C)c2c(c1C)CC(C)(CO)O2 (centres undefined) | 98 to 99 °C
81 | O=C(O)CCSC1c2cccc(O)c2C(=O)c2c(O)cccc21 | 152 to 153 °C
82 | CC(C)C(NC(=O)Cn1cccc(NC(=O)Cc2ccccc2)c1=O)C(=O)C(F)(F)F (centres undefined) | 70 to 72 °C
83 | c1cc(-c2cnn3cc(-c4ccc(OCCN5CCCCC5)cc4)cnc23)cs1 | 141 to 143 °C
84 | CC(C)C1(C)N=C2c3nc4sccc4cc3C(=O)N2C1=O (centres undefined) | 214 to 216 °C
85 | CC(C)CC1=NC=C2C=CC(=O)NC3=C2N1CC3 | 211 to 212 °C
86 | O=C(CC1c2ccccc2C(=O)N1c1ccc2ccc(Cl)nc2n1)N1CCC2(CC1)OCCO2 (centres undefined) | 238 to 239 °C
87 | O=C1Nc2ccccc2C12COc1cc3c(cc12)CCO3 (centres undefined) | 105 to 107 °C
88 | CC(C)(C)NCC(O)COc1ccc2c(=O)cc(-c3ccc(O)c(O)c3)oc2c1 (centres undefined) | 165 °C
89 | CCN(CC)c1ccc(S(=O)(=O)N2CCCCC2=O)cc1 | 118 to 120 °C
90 | COc1cc(C)ccc1S(=O)(=O)OCC(=O)c1ccccc1 | 89 °C
91 | O=C(Nc1ccc(C(F)(F)F)cc1)C(Cl)=NNc1ccc(Cl)cc1 | 167 to 168 °C
92 | COC(=O)CC1(O)CC2CCC1(CS(=O)(=O)N1CCC3(C=Cc4ccccc43)CC1)C2(C)C (centres undefined) | 81 to 83 °C
93 | Cc1cn(C)c2c(OCc3ccccc3)cc3c(c12)[C@H](CO)CN3C(=O)OC(C)(C)C | 138 to 140 °C
94 | O=C(O)C1=C(c2ccc3c(c2)OCO3)c2ccccc2S(=O)(=O)N1Cc1ccc2c(c1)OCO2 | 229 to 230 °C
95 | CS(=O)(=O)Nc1ccc(Cl)c(F)c1 | 109 to 111 °C
96 | CC(C)c1c(Sc2ccccc2)n(CC2=CCC(CO)C2)c(=O)[nH]c1=O (centres undefined) | 166 to 168 °C
97 | CN(C)C=Cc1nc2ccccc2c(=O)n1-c1ccccc1Cl | 228 to 230 °C
98 | COc1cc(-c2ncc(C(F)(F)F)cc2Cl)ccc1C#N | 135 to 137 °C
99 | COC(=O)c1nc2ccccc2o1 | 101 to 102 °C
